Test results reported in a melting point compilation (Tetko et al.).

Row | Structure (SMILES) | melting point [°C]
1 | O=C(CCl)N1CC=C(c2ccccc2)CC1 | 86 to 88
2 | Clc1cc2nn[nH]c2cc1Cl | 249 to 251
3 | Nc1cc(Br)cc(Cl)c1O | 79 to 81
4 | NC(=S)c1cccc(NC(=O)C2CC2)c1 | 181 to 183
5 | CC(NC(=O)CCl)C1CC2CCC1C2 (centres undefined) | 87 to 89
6 | Cc1ccc(Nc2nnc(S)s2)cc1C | 181 to 183
7 | Cc1nc(CCC(=O)O)oc1-c1ccc(Br)cc1 | 179 to 181
8 | O=C(O)c1csc(-c2ccoc2)n1 | 166 to 168
9 | Cc1nc(CO)oc1C | 59 to 61
10 | COc1c(C(=O)O)cc(Cl)cc1[N+](=O)[O-] | 161 to 163
11 | Cc1ccc(C2CNCCO2)c(C)c1 (centres undefined) | 49 to 51
12 | O=[N+]([O-])c1cccc2c1CCN2 | 111 to 113
13 | Cc1cccc(C)c1NC(=O)CCCCl | 104 to 106
14 | O=C(O)CCNC(=O)c1ccc(F)cc1F | 118 to 120
15 | Nc1ccc(-c2csnn2)cc1 | 125 to 127
16 | CNC1CCCCNC1=O (centres undefined) | 234 to 236
17 | CC(C)(C)c1ccc(C(=O)Nc2ccc(O)cc2)cc1 | 196 to 198
18 | CC(Cc1ccc(C(F)(F)F)cc1)C(=O)O (centres undefined) | 68 to 70
19 | N#Cc1cc([N+](=O)[O-])ccc1N1CCC(C(=O)O)CC1 | 161 to 163

Row | Structure (SMILES) | melting point [°C]
20 | CS(=O)(=O)c1cc([N+](=O)[O-])c(Cl)s1 | 148 to 150
21 | CCCNc1ccc(S(N)(=O)=O)cc1N | 104 to 106
22 | Cc1cn(-c2cccnc2)nc1N | 135 to 137
23 | NC(=O)c1coc(Br)c1 | 165 to 167
24 | O=C(O)/C=C/c1cc(Cl)ccc1Cl | 192 to 194
25 | O=C(CCl)Nc1cccc(CSc2ccccn2)c1 | 90 to 92
26 | CC(C)(C)OC(=O)N1CCN(C(N)=O)CC1 | 175 to 177
27 | CSc1cc(C(=O)O)ccc1F | 189 to 191
28 | CCOC(=O)c1cn2c(n1)NCCC2 | 171 to 173
29 | Cc1nc2c(Cl)cccc2n1O | 239 to 241
30 | Cc1cc(=O)[nH]cc1C(=O)O | 306 to 308
31 | Cc1cc(C=O)cc(C)c1OCc1ccccc1Cl | 58 to 60
32 | O=C(O)Cc1csc(-c2ccc(Br)s2)n1 | 142 to 144
33 | O=C(O)CC1Sc2ccc(C(F)(F)F)cc2NC1=O (centres undefined) | 236 to 238
34 | CC1=NOC(=O)C1CC(=O)O (centres undefined) | 149 to 151
35 | Nc1ccc(CN2CCCC2=O)cc1 | 124 to 126
36 | O=C1NC(=O)C2(CCSCC2)N1 | 265 to 267
37 | Cc1cc(Br)ccc1C(=O)N1CCCC(C(=O)O)C1 (centres undefined) | 123 to 125
38 | COc1nc(C(=O)O)cc2ccccc12 | 184 to 186

Row | Structure (SMILES) | melting point [°C]
39 | CC(=O)N(C)c1ccccc1N | 146 to 148
40 | NS(=O)(=O)c1cc(Cl)ccc1Cl | 179 to 181
41 | COc1ccc2c(C)cc(NN)nc2c1 | 250 to 252
42 | C#CCNC(=O)c1cccc(C#N)c1 | 132 to 134
43 | CCOC(=O)C(=O)c1c(C)[nH]c2ccccc12 | 127 to 129
44 | O=C(O)Cc1c[nH]c2ccc(F)cc12 | 139 to 141
45 | O=C(O)c1nc(-c2cccs2)n(-c2ccc(F)cc2)n1 | 196 to 198
46 | COc1ccc2nc(C#N)ccc2c1 | 176 to 178
47 | CC1CCC(NC2CCC(O)CC2)CC1 (centres undefined) | 143 to 145
48 | O=C1COc2ccc(C(=O)CBr)cc2N1 | 190 to 192
49 | COc1ccc(C(=O)O)cc1S(=O)(=O)N1CCCCC1C (centres undefined) | 175 to 180
50 | CCOC(C)C(N)=S (centres undefined) | 54 to 56
51 | CC(=O)c1cc([N+](=O)[O-])ccc1C | 50 to 52
52 | COc1ccc(C(=O)O)cc1S(=O)(=O)NC(C)C | 194 to 197
53 | O=C(O)CCNS(=O)(=O)C=Cc1ccccc1 | 119 to 123
54 | NS(=O)(=O)c1ccc2c(c1)CCCC2 | 135 to 137
55 | Cc1[nH]c2ccc(C#N)cc2c1C | 145 to 147
56 | Cc1cc(N)n(CCO)n1 | 48 to 52
57 | COCCNc1cc2nc[nH]c(=O)c2cc1[N+](=O)[O-] | 259 to 261

Further lines, results first:

Row | melting point [°C] | Structure (SMILES)
58 | 65 to 67 | C=CCNC(=O)CC#N
59 | 115 to 117 | CNC(=O)Cn1nc(N)cc1C
60 | 93 to 95 | CC(C)c1nc(C(=O)O)nn1-c1cccc(F)c1
61 | 96 to 98 | CC(C)(C)OC(=O)NC(COS(C)(=O)=O)COS(C)(=O)=O
62 | 75 to 77 | CCc1nc2c(s1)C(O)CCC2 (centres undefined)
63 | 84 to 86 | Nc1ccccc1-c1nc(C2CC2)no1
64 | 189 to 191 | NNC(=O)Cc1ccc2ccccc2c1
65 | 48 to 50 | COC(=O)c1ccc(F)c(S(=O)(=O)Cl)c1
66 | 161 to 163 | NNc1nc(Cl)c(Cl)cc1Cl
67 | 57 to 59 | O=C(O)C1CCC2CCCCC2C1 (centres undefined)
68 | 104 to 106 | CC(=O)c1ccc2cccc3c2c1CC3
69 | 139 to 141 | Cc1ccc(Br)c(C(=O)O)c1
70 | 126 to 128 | COc1ccccc1Cn1cnc2cc(C)c(C)cc21
71 | 202 to 204 | CC(C)(C)OC(=O)N1CCc2c(sc(N)c2C#N)C1
72 | 129 to 131 | CC(C)(C(=O)O)c1ccc([N+](=O)[O-])cc1
73 | 139 to 141 | ClCc1cn(-c2ccc(Cl)cc2)nn1
74 | 287 to 289 | Cc1ccn2c(N)nnc2c1
75 | 148 to 150 | CC(C)(C)OC(=O)N1CCN(S(=O)(=O)Cl)CC1
76 | 104 to 106 | CC(C)c1nnn[nH]1
77 | 224 to 226 | Cc1nc2ncnn2c(C)c1CCC(=O)O
78 | 201 to 203 | COc1ccc2cc[nH]c(=O)c2c1
79 | 154 to 156 | O=C(O)C1CCN(c2ccc(F)c(F)c2)C1=O (centres undefined)
80 | 98 to 100 | CN(c1ccccc1)S(=O)(=O)c1cccc(NC(=O)CCl)c1
81 | 107 to 109 | CC(C)COc1ccc(C(C)(C)C(=O)O)cc1

Row | melting point [°C] | Structure (SMILES)
82 | 158 to 160 | CN(C)c1nc[nH]c(=O)c1N
83 | 208 to 210 | O=C1CCCc2cc(S(=O)(=O)Cl)ccc2N1
84 | 87 to 91 | COc1ccc(F)cc1C(=O)O
85 | 91 to 93 | CC(C)(C(=O)O)c1cccc(C#N)c1
86 | 189 to 191 | Brc1cncc(-c2ncc[nH]2)c1
87 | 221 to 223 | Nc1nc(-c2cccc(C(F)(F)F)c2)n[nH]1
88 | 142 to 144 | Cc1ccc2[nH]cc(C=O)c2c1
89 | 97 to 99 | O=C(O)Cc1csc(-c2cccs2)n1
90 | 278 to 280 | O=C(O)c1ccc2nnc(C(F)F)n2c1
91 | 139 to 141 | Cc1ccc2oc(S)nc2n1
92 | 58 to 60 | COc1cccc(NC(=O)OCC(F)(F)F)c1
93 | 129 to 131 | Cn1cnc([N+](=O)[O-])c1Oc1ccc(Br)cc1
94 | 110 to 112 | CNS(=O)(=O)c1ccc(N)cc1
95 | 105 to 107 | CC(C)(C)OC(=O)NCc1cccc(C(N)=S)c1
96 | 112 to 114 | Cc1ccccc1NC(=O)C(C)Cl (centres undefined)
97 | 144 to 146 | CC(C)(C)OC(=O)NCc1ccc(C(=O)O)c(C2CC2)n1
98 | 76 to 80 | O=C1CSC(N2CCCCC2)=N1
99 | 110 to 112 | Cn1c(Cl)cnc1CO
100 | 126 to 128 | CC(Cl)C(=O)Nc1nc2ccc(F)cc2s1 (centres undefined)
101 | 173 to 175 | O=C(O)C1CC(=O)N(c2ccc(Br)cc2)C1 (centres undefined)
102 | 125 to 127 | CCCCc1ccc(NC(=S)NN)cc1
103 | 185 to 187 | O=C(O)c1cc2ccc(SC(F)(F)F)cc2[nH]1
104 | 127 to 129 | NS(=O)(=O)c1cc(C(F)(F)F)ccc1F
